Results as given in article PMC4874602 (ACS Infectious Diseases, 2016).
Where two headings read alike, the source gives them in different places.

Assays:
[1] = lung; single dose of 25 mg/kg BDQ; BALB/c and C3HeB/FeJ
[2] = cited from earlier work
[3] = system: Mycobacterium tuberculosis; details: cited from earlier work
[4] = BALB/c; for Cmax / AUC168h / Tmax / t1/2: single 25 mg/kg oral dose of BDQ; for AUC8h: single 150 mg/kg oral dose of PZA
[5] = C3HeB/FeJ; for AUC8h: single 150 mg/kg oral dose of PZA
[6] = system: THP-1 cells; details: 30 min exposure, 1 mM PZA, 0.4 mM POA
[7] = in vivo; details: C3HeB/FeJ, mouse, po, 150 mg/kg; for Cmax / half-life / Tmax: single 150 mg/kg oral dose of PZA; for half-life: t1/2, C3HeB/FeJ
[8] = in vivo; details: BALB/c and C3HeB/FeJ, mouse, 150 mg/kg
[9] = in vivo; details: BALB/c, mouse, po, 150 mg/kg; for Cmax / half-life / Tmax: single 150 mg/kg oral dose of PZA; for half-life: t1/2, BALB/c
[10] = system: M. tuberculosis Erdman; type: in vivo, Mycobacterium tuberculosis; details: C3HeB/FeJ, P < 0.01
[11] = system: M. tuberculosis Erdman; type: in vivo, Mycobacterium tuberculosis; details: BALB/c, P < 0.01
[12] = lesion (cellular non-necrotizing, type III)
[13] = lesion (type I), single 25 mg/kg oral dose of BDQ
[14] = plasma, single 25 mg/kg oral dose of BDQ
[15] = uninvolved lung, single 25 mg/kg oral dose of BDQ
[16] = whole lung, single 25 mg/kg oral dose of BDQ
[17] = PZA 150 mg/kg, first 3 weeks of treatment
[18] = PZA 300 mg/kg vs 150 mg/kg, first 3 weeks

Structure (SMILES): CNCCC(O)(c1cccc2ccccc12)C(c1ccccc1)c1cc2cc(Br)ccc2nc1OC (stereo not shown) [M2, N-desmethyl-BDQ]
- tmax by MALDI-MSI [1]: 24 h
- protein bound [2]: more than 99%
- MIC relative to BDQ [3]: approximately five times higher than that of BDQ
- Cmax [4, 12]: 82.7 µg/g
- AUC168h ([4]; lesion (type III)): 7619 µg·h/g
- Tmax ([4]; lesion (type III)): 24 h
- t1/2 ([4]; lesion (type III)): 90.7 h
- AUC168h ([4]; plasma): 57.3 µg·h/mL
- Cmax ([4]; plasma): 0.76 µg/mL
- Tmax ([4]; plasma): 8 h
- t1/2 ([4]; plasma, 72–168 h terminal): 59.8 h
- AUC168h ([4]; uninvolved lung): 8825 µg·h/g
- Cmax ([4]; uninvolved lung): 111.8 µg/g
- Tmax ([4]; uninvolved lung): 24 h
- t1/2 ([4]; uninvolved lung): 69.7 h
- AUC168h ([4]; whole lung): 7207 µg·h/g
- Cmax ([4]; whole lung): 69.5 µg/g
- Tmax ([4]; whole lung): 24 h
- t1/2 ([4]; whole lung): 90.6 h
- concentration in dissected caseum of type I granulomas (LC/MS/MS) ([5]; 8 h following a single 25 mg/kg dose of BDQ, preliminary): 587.5 ng/g
- Cmax ([5]; lesion (caseous necrotic granuloma, type I), single 25 mg/kg oral dose of BDQ): 26.8 µg/g
- AUC168h [5, 13]: 2848 µg·h/g
- Tmax [5, 13]: 24 h
- t1/2 [5, 13]: 98.6 h
- AUC168h [5, 14]: 69.3 µg·h/mL
- Cmax [5, 14]: 0.70 µg/mL
- Tmax [5, 14]: 24 h
- plasma exposure (AUC168h) as printed in the discussion [5, 14]: 69.3 µg·h/g
- t1/2 ([5]; plasma, single 25 mg/kg oral dose of BDQ, 72–168 h terminal): 55.9 h
- AUC168h [5, 15]: 4895 µg·h/g
- Cmax [5, 15]: 46.9 µg/g
- Tmax [5, 15]: 24 h
- t1/2 [5, 15]: 89.4 h
- AUC168h [5, 16]: 5254 µg·h/g
- Cmax [5, 16]: 45.4 µg/g
- Tmax [5, 16]: 24 h
- t1/2 [5, 16]: 134.7 h

Structure (SMILES): NC(=O)c1cnccn1 [PZA, pyrazinamide]
- accumulation within THP-1 cells [6]: accumulated to a very low degree
- MIC ([3]; pH 7.0, standard laboratory culture conditions): > 1000 mg/mL
- AUC8h ([4]; lesion (type III)): 459.4 µg·h/g
- AUC8h ([4]; uninvolved lung): 262.8 µg·h/g
- AUC8h ([4]; whole lung): 298.6 µg·h/g
- AUC8h ([5]; lesion (type I)): 351.8 µg·h/g
- AUC8h ([5]; uninvolved lung): 237.9 µg·h/g
- AUC8h ([5]; whole lung): 306.3 µg·h/g
- AUC(0-t) [7]: 329 µg·h/mL
- Kp ([7]; AUCLes/AUCplasma): 1.07
- Kp ([7]; AUCUL/AUCplasma): 0.72
- Kp ([7]; AUCWL/AUCplasma): 0.93
- Cmax ([7]; lesion (caseous necrotic granuloma, type I)): 94700 ng/g
- Cmax ([7]; plasma): 87.4 µg/mL
- Cmax ([7]; uninvolved lung): 66200 ng/g
- Cmax ([7]; whole lung): 76500 ng/g
- half-life ([7]; lesion (type I)): 2.88 h
- half-life ([7]; plasma, 2.5–8 h terminal): 2.6 h
- half-life ([7]; uninvolved lung): 3.01 h
- half-life ([7]; whole lung): 2.82 h
- Tmax ([7]; lesion (type I)): 1 h
- Tmax ([7]; plasma): 0.75 h
- Tmax ([7]; uninvolved lung): 1 h
- Tmax ([7]; whole lung): 1 h
- Tmax [8]: 0.5 to 1 h
- AUC(0-t) [9]: 346 µg·h/mL
- Kp ([9]; AUCLes/AUCplasma): 1.33
- Kp ([9]; AUCUL/AUCplasma): 0.76
- Kp ([9]; AUCWL/AUCplasma): 0.86
- Cmax [9, 12]: 146000 ng/g
- Cmax ([9]; plasma): 161 µg/mL
- Cmax ([9]; uninvolved lung): 93600 ng/g
- Cmax ([9]; whole lung): 123000 ng/g
- half-life ([9]; lesion (type III)): 0.96 h
- half-life ([9]; plasma, 2.5–8 h terminal): 1.05 h
- half-life ([9]; uninvolved lung): 0.75 h
- half-life ([9]; whole lung): 1.02 h
- Tmax ([9]; lesion (type III)): 0.5 h
- Tmax ([9]; plasma): 0.5 h
- Tmax ([9]; uninvolved lung): 0.5 h
- Tmax ([9]; whole lung): 0.5 h
- change in pulmonary CFU [10, 17]: significant decrease in pulmonary CFU
- change in pulmonary CFU [10, 18]: larger decrease in CFU
- change in pulmonary CFU [11, 17]: significant decrease in pulmonary CFU
- change in pulmonary CFU [11, 18]: larger decrease in CFU
